The numbers were not newly measured in patent US8227207B2, “Bioactive peptides derived from the proteins of egg white by means of enzymatic hydrolysis” (Consejo Superior de Investigaciones Cientifcas, priority 2004, dated 2012), which cites them from elsewhere.

Data set [1] relates to spontaneously hypertensive rats (SHR). The note with it: ovokinin oral 100 mg/kg, ovokinin (2-7) 10 mg/kg; cited from earlier work.
Data set [2] deals with angiotensin converting enzyme (ACE). The settings on record: result in words, literature; cited from earlier work.
Data set [3] has as its system spontaneously hypertensive rats (SHR). The settings on record: SHR, doses of 10 mg/kg; literature; cited from earlier work.

Residues, ends and D or L forms follow the SMILES beside them.

As for `C[C@H](NC(=O)[C@@H](N)CCCNC(=N)N)C(=O)N[C@@H](CC(=O)O)C(=O)N[C@@H](Cc1cnc[nH]1)C(=O)N1CCC[C@H]1C(=O)N[C@@H](Cc1ccccc1)C(=O)O` [ovokinin (2-7), RADHPF] (H-RADHPF-OH), the “anti-hypertensive / vasodilatory activity in SHR (in words)” value in data set [1] was “exerted a potent vasodilatory action”. Moreover, the ACEI activity result in data set [2] is “neither ovokinin (2-7), nor its RPFHPF (SEQ. ID. NO: 10) or RPLKPW (SEQ. ID. NO: 11) derivatives possessed ACEI activity”. In addition, the vasodilatory action entry in data set [3] is on record as “potent vasodilatory action in SHR”.
